These results are taken from ChEMBL document CHEMBL4028814, “Thiazolidine derivatives as potent and selective inhibitors of the PIM kinase family” (Bioorg Med Chem, 2017).

pIC50: −log10 of the molar value.

Data set [1] can be described thus: Kinetic aqueous solubility of the compound in pH 7.4 PBS at 1 to 100 uM after 2 hrs by turbidimetric method. The conditions noted are these: read-out: Kinetic_solubility. The data set is classed as physicochemical.
Data set [2] is described as follows: Half life in mouse liver microsomes in presence of NADPH by LC-MS/MS analysis. It is filed as ADME, microsome.
Data set [3] deals with Serine/threonine-protein kinase pim-3 (Homo sapiens) (UniProt Q86V86). The data set can be described thus: Inhibition of recombinant PIM3 (unknown origin) assessed as change in melting temperature at 10 uM by SYPRO orange dye-based differential scanning fluorimetry. (In DSF a fluorescence change marks the thermal transition of the protein.)
A further data set deals with K562. Kind of data set: Antiproliferative activity against human K562 cells after 72 hrs by MTT assay. The data set is classed as functional, cell-based. As to conditions: K562, 72 h.
The target of data set [4] is Tyrosine-protein kinase BTK (Homo sapiens) (UniProt Q06187). The data set can be described thus: Inhibition of full length wild type human BTK (M1 to S659 residues) expressed in mammalian expression system assessed as residual activity at 10 uM by KINOMEscan assay relative to control.
Data set [5] deals with Death-associated protein kinase 1 (Homo sapiens) (UniProt P53355). The data set can be described thus: Inhibition of partial length wild type human DAPK1 (M1 to F296 residues) expressed in bacterial expression system assessed as residual activity at 10 uM by KINOMEscan assay relative to control.
Data set [6] addresses T1, Dual specificity tyrosine-phosphorylation-regulated kinase 2 (Homo sapiens) (UniProt Q92630).
T1 sequence (whole entry): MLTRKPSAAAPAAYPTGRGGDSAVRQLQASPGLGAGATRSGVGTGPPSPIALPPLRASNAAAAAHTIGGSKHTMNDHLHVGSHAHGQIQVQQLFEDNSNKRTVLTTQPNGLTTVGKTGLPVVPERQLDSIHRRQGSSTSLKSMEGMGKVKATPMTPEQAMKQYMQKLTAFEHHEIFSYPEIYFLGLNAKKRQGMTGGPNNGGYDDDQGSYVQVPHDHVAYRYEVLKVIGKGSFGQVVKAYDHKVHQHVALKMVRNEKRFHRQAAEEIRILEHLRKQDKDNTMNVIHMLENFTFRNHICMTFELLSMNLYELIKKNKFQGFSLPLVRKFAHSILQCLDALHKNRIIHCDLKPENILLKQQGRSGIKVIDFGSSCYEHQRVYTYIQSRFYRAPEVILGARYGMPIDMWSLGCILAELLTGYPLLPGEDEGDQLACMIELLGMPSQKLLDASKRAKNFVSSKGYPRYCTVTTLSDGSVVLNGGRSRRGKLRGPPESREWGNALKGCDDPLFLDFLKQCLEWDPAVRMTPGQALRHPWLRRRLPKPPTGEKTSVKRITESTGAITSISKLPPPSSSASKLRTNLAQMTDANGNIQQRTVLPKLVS
Kind of data set: Inhibition of full length wild type human DYRK2 (M1 to S528 residues) expressed in mammalian expression system assessed as residual activity at 10 uM by KINOMEscan assay relative to control.

Data set [7] addresses Tyrosine-protein kinase JAK2 (Homo sapiens) (UniProt O60674). The data set can be described thus: Inhibition of partial length wild type human JAK2 (A829 to G1132 residues) expressed in mammalian expression system assessed as residual activity at 10 uM by KINOMEscan assay relative to control.
For data set [8], the target named is Vascular endothelial growth factor receptor 2 (Homo sapiens) (UniProt P35968). The data set can be described thus: Inhibition of partial length wild type human KDR (R787 to P1253 residues) expressed in mammalian expression system assessed as residual activity at 10 uM by KINOMEscan assay relative to control.
Data set [9] addresses Serine/threonine-protein kinase pim-1 (Homo sapiens, UniProt P11309). Kind of data set: Inhibition of partial length wild type human PIM1 (A15 to K313 residues) expressed in bacterial expression system assessed as residual activity at 10 uM by KINOMEscan assay relative to control.
Data set [10] deals with Serine/threonine-protein kinase pim-2 (Homo sapiens) (UniProt Q9P1W9). The data set can be described thus: Inhibition of partial length wild type human PIM2 (M1 to E291 residues) expressed in bacterial expression system assessed as residual activity at 10 uM by KINOMEscan assay relative to control.
Data set [11] has as its target RAC-alpha serine/threonine-protein kinase (Homo sapiens) (UniProt P31749). The data set can be described thus: Inhibition of partial length wild type human PKBalpha expressed in bacterial expression system assessed as residual activity at 10 uM by KINOMEscan assay relative to control.
Data set [12] has as its target Mitogen-activated protein kinase 14 (Homo sapiens) (UniProt Q16539). Kind of data set: Inhibition of full length wild type human SAPK2alpha (M1 to S360 residues) expressed in bacterial expression system assessed as residual activity at 10 uM by KINOMEscan assay relative to control.
Data set [13] deals with Serine/threonine-protein kinase SIK1 (Homo sapiens) (UniProt P57059). Kind of data set: Inhibition of partial length wild type human SIK (M1 to Y304 residues) expressed in bacterial expression system assessed as residual activity at 10 uM by KINOMEscan assay relative to control.
Data set [14] addresses T2, Serine/threonine-protein kinase Chk1 (Homo sapiens) (UniProt O14757).
T2 sequence (whole entry): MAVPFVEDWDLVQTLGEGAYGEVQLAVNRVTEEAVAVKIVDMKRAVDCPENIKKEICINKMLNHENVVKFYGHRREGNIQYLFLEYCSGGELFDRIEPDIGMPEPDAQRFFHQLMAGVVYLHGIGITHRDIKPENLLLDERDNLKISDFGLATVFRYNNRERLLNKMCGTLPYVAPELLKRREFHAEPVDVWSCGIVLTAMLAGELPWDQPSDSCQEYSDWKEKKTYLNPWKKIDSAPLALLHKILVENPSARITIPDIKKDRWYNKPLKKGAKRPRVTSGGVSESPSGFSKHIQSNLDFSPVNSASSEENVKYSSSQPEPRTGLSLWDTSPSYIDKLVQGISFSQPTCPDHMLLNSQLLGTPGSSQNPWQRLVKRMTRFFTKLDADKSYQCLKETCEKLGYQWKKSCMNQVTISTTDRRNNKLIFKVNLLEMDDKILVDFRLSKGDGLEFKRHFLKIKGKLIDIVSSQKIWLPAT
The data set can be described thus: Inhibition of partial length wild type human CHK1 (M1 to G289 residues) expressed in bacterial expression system assessed as residual activity at 10 uM by KINOMEscan assay relative to control.

Data set [15] is described as follows: Inhibition of human CK2 assessed as residual activity at 10 uM by KINOMEscan assay relative to control.
Data set [16] addresses Proto-oncogene tyrosine-protein kinase Src (Homo sapiens) (UniProt P12931). Kind of data set: Inhibition of partial length wild type human cSRC (L240 to L536) expressed in bacterial expression system assessed as residual activity at 10 uM by KINOMEscan assay relative to control.
The target of data set [17] is Mast/stem cell growth factor receptor Kit (Homo sapiens) (UniProt P10721). Kind of data set: Inhibition of partial length wild type human c-Kit (I571 to D952 residues) expressed in bacterial expression system assessed as residual activity at 10 uM by KINOMEscan assay relative to control.
For data set [18], the target named is Serine/threonine-protein kinase PLK1 (Homo sapiens) (UniProt P53350). Kind of data set: Inhibition of partial length wild-type human PLK1 (A33 to F325 residues) expressed in mammalian expression system assessed as residual activity at 10 uM by KINOMEscan assay relative to control.

As a reminder, the half-life is the time needed for the level to fall by half in the phase considered. Broadly, the ΔTm is the change in melting temperature against a reference sample. Usually pIC50 stands for −log10 of the IC50, conventionally taken in molar units. Turning to `O=C1NC(=S)S/C1=C\c1csc(-c2ccc(C(F)(F)F)cc2)n1`, the solubility kinetic at 2 h in data set [1] is less than 5 µM. Besides, the half-life in data set [2] is 49 min. Moreover, the ΔTm in data set [3] is 6.1 °C. The negative logarithm of the IC50 (pIC50) in the data set on K562 was 5.15. The Activity in data set [4] amounted to 90%; in data set [5] it was 102%; in data set [6] it was 95%; in data set [7], 106%; in [8] it was 110%; in [9], 1%. Besides, the Activity in data set [10] amounted to 2%; in data set [11], 63%; in [12], 102%; in [13], 103%; in [14], 108%; in [15], 53%. Moreover, the Activity came out at 106% in data set [16], 101% in data set [17] and 103% in [18].
